What was measured:
[1] = system: LNCaP cells; test: Uptake and internalization in LNCaP cells; type: cell-based, human; conditions: 120 min incubation, normalized to 10^6 cells
Protocol: LNCaP prostate cancer cell line obtained from the American Type Culture Collection (ATCC, Manassas, VA) was used for cell affinity studies. […] The supernatant was disposed, and the cell pellet was resuspended in a culture medium, and LNCaP cells (150,000 cells/well) were counted with a hemocytometer and seeded in poly-L-lysine-coated 24-well plates used in cell binding studies. The cells were then allowed to grow at 37 °C for 48 h. PC3-PIP cells provided by Professor Xiaoyuan Chen (Singapore) require additional Puromycin (2 µg/ml) in addition to the appealed culture conditions.

[2] = biological target: T1, PSMA (Homo sapiens, UniProt Q04609); conditions: LNCaP cells, competition with [68Ga]Ga-PSMA-11; cited from earlier work
T1 construct: host or cells: LNCaP
T1 sequence (Q04609 whole entry): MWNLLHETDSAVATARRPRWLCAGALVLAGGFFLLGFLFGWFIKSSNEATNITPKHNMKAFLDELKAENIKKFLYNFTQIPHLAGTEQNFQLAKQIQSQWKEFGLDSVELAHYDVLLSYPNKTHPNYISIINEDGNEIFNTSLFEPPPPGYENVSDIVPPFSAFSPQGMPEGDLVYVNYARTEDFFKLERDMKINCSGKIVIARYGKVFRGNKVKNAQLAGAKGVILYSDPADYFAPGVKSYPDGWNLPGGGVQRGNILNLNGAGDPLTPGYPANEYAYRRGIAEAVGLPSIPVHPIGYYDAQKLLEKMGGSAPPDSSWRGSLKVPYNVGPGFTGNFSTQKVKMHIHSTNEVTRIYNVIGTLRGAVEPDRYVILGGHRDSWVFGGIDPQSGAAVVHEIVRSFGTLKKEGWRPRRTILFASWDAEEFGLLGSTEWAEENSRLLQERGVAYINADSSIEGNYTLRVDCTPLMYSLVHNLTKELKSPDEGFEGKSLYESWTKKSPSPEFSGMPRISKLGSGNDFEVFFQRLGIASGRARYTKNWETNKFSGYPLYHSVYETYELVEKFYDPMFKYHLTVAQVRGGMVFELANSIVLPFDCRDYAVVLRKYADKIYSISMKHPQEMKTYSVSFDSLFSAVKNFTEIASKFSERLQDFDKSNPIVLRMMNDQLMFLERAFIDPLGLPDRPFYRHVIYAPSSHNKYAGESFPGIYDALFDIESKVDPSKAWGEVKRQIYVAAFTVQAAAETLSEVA

[3] = design: method as in PMID 36696174; conditions: at 2 h; cited from earlier work
[4] = system: LNCaP tumor-bearing NOD/SCID mice; test: Biodistribution in LNCaP tumor model; conditions: for Blood uptake / Bone uptake / Brain uptake / Heart uptake / Kidney uptake / Liver uptake / Lung uptake / Muscle uptake / Salivary uptake / Small int (small intestine) uptake / Spleen uptake / Stomach uptake / Tumor uptake: mean ± SD (n=5)
[5] = system: PC3-PIP tumors; test: Micro-SPECT/CT imaging of 177Lu-labeled ligands in PC3-PIP tumor model; type: in vivo; conditions: balb/c-nu mice, scans 1-168 h
Protocol: To perform imaging studies, the male mice bearing LNCaP tumors were injected with the corresponding radioligand (~ 2.5 MBq; 100 μL) via their tail veins. The micro-PET/CT scans (Inveon PET, Siemens) were conducted at 10, 30, 60, and 120 min after injection. The mice were anesthetized and maintained under 2% isoflurane in oxygen at a flow rate of 2 L/min during the 2-h imaging study. First, a 10 min static PET imaging acquisition was carried out, followed by a 10 min CT scan for localization and attenuation correction. Data analysis was performed using Inveon Research Workplace software. For PC3-PIP tumor model, the imaging studies were performed with micro-PET/SPECT/CT (Inliview-3000B, Novel Medical). Data analysis was performed using Nmsoft-Al ws v1.7–1 software.
Balb/c-nu mice carrying PC3-PIP tumors were chosen for the micro-SPECT/CT imaging investigation of [^177Lu]Lu-PP4-WD and [^177Lu]Lu-PP8-WD (see Additional file 1: Figure S8).

In the case of `O=C([O-])CN1CCN(CC(=O)[O-])CCN(CC(=O)NCCCCCN(CCCC[C@H](NC(=O)N[C@@H](CCC(=O)O)C(=O)O)C(=O)O)C(=O)C2c3ccccc3-c3ccccc32)CCN(CC(=O)[O-])CC1.[68Ga+3]` [[^68Ga]Ga-Flu-1], the “Internalization in LNCaP cells” value [1] is listed as 21.3 ± 0.13%, the “Uptake in LNCaP cells” value [1] is listed as 34.57 ± 4.14% and the IC50 [2] is listed as 9.62 ± 1.7 nM. For the same molecule, the “Kidney uptake, folds greater than that in the tumor” value [3] was 3 folds, the Tumor/Blood ratio ([4]; 30 min) was 5.94±1.41 and the Tumor/Heart ratio ([4]; 30 min) was 17.48±3.23. For the same molecule, the Tumor/Kidney ratio ([4]; 30 min) was 0.14±0.12, the Tumor/Liver ratio ([4]; 30 min) was 15.57±2.89 and the Tumor/Salivary ratio ([4]; 30 min) was 5.63±1.11. For the same molecule, the Blood uptake ([4]; 30 min p.i.) was 5.53±2.11 %ID/g, the Bone uptake ([4]; 30 min p.i.) was 0.66±0.22 %ID/g and the Brain uptake ([4]; 30 min p.i.) was 0.18±0.10 %ID/g. The Heart uptake ([4]; 30 min p.i.) was 1.88±0.46 %ID/g, the Kidney uptake ([4]; 30 min p.i.) was 240.00 ± 34.68 %ID/g and the Liver uptake ([4]; 30 min p.i.) was 2.11±0.52 %ID/g. For the same molecule, the Lung uptake ([4]; 30 min p.i.) was 5.77±2.01 %ID/g, the Muscle uptake ([4]; 30 min p.i.) was 0.93±0.34 %ID/g and the Salivary uptake ([4]; 30 min p.i.) was 5.84±3.65 %ID/g. The “Small int (small intestine) uptake” value ([4]; 30 min p.i.) was 2.52±0.60 %ID/g, the Spleen uptake ([4]; 30 min p.i.) was 9.45±5.92 %ID/g and the Stomach uptake ([4]; 30 min p.i.) was 1.84±0.31 %ID/g. The Tumor uptake ([4]; 30 min p.i.) was 32.86 ± 12.02 %ID/g, the Tumor/Blood ratio ([4]; 60 min) was 11.1±1.97 and the Tumor/Heart ratio ([4]; 60 min) was 44.13±4.22. The Tumor/Kidney ratio ([4]; 60 min) was 0.22±0.21, the Tumor/Liver ratio ([4]; 60 min) was 33.17±3.09 and the Tumor/Salivary ratio ([4]; 60 min) was 17.24±3.54. It also gave a Blood uptake ([4]; 60 min p.i.) of 4.69±2.33 %ID/g, a Bone uptake ([4]; 60 min p.i.) of 0.29±0.18 %ID/g and a Brain uptake ([4]; 60 min p.i.) of 0.11±0.10 %ID/g. For the same molecule, the Heart uptake ([4]; 60 min p.i.) was 1.18±0.36 %ID/g, the Kidney uptake ([4]; 60 min p.i.) was 240.01±31.08 %ID/g and the Liver uptake ([4]; 60 min p.i.) was 1.57±0.60 %ID/g. For the same molecule, the Lung uptake ([4]; 60 min p.i.) was 3.27±0.84 %ID/g, the Muscle uptake ([4]; 60 min p.i.) was 0.44±0.25 %ID/g and the Salivary uptake ([4]; 60 min p.i.) was 3.02±1.27 %ID/g. The “Small int (small intestine) uptake” value ([4]; 60 min p.i.) was 1.89±1.10 %ID/g, the Spleen uptake ([4]; 60 min p.i.) was 7.25±3.39 %ID/g and the Stomach uptake ([4]; 60 min p.i.) was 0.86±0.11 %ID/g. For the same molecule, the Tumor uptake ([4]; 60 min p.i.) was 52.07 ± 14.83 %ID/g, the Tumor/Blood ratio ([4]; 120 min) was 13.07±2.56 and the Tumor/Heart ratio ([4]; 120 min) was 69.16±5.69. The Tumor/Kidney ratio ([4]; 120 min) was 0.31±0.21, the Tumor/Liver ratio ([4]; 120 min) was 37.14±3.65 and the Tumor/Salivary ratio ([4]; 120 min) was 27.47±4.33. The Blood uptake ([4]; 120 min p.i.) was 3.07±2.7 %ID/g, the Bone uptake ([4]; 120 min p.i.) was 0.34±0.21 %ID/g and the Brain uptake ([4]; 120 min p.i.) was 0.06±0.04 %ID/g. For the same molecule, the Heart uptake ([4]; 120 min p.i.) was 0.58±0.28 %ID/g, the Kidney uptake ([4]; 120 min p.i.) was 127.83 ± 27.94 %ID/g and the Liver uptake ([4]; 120 min p.i.) was 1.08±0.71 %ID/g. It also gave a Lung uptake ([4]; 120 min p.i.) of 1.23±0.47 %ID/g, a Muscle uptake ([4]; 120 min p.i.) of 0.19±0.08 %ID/g and a Salivary uptake ([4]; 120 min p.i.) of 1.46±1.05 %ID/g. For the same molecule, the “Small int (small intestine) uptake” value ([4]; 120 min p.i.) was 0.46±0.25 %ID/g, the Spleen uptake ([4]; 120 min p.i.) was 2.38±1.75 %ID/g and the Stomach uptake ([4]; 120 min p.i.) was 0.42±0.17 %ID/g. For the same molecule, the Tumor uptake ([4]; 120 min p.i.) was 40.11 ± 9.24 %ID/g.
In the case of `O=C([O-])CN1CCN(CC(=O)[O-])CCN(CC(=O)NCCOCCOCCOCCOCCOCCOCCOCCOCCNC(=O)CN(CCCC[C@H](NC(=O)N[C@@H](CCC(=O)O)C(=O)O)C(=O)O)C(=O)C2c3ccccc3-c3ccccc32)CCN(CC(=O)[O-])CC1.[177Lu+3]` [[^177Lu]Lu-PP8-WD], the “Tumor-to-background ratio in micro-SPECT/CT” value [5] is reported as “favorable tumor-to-background ratio for up to 168 h”.
